According to US20120122727A1, “IN VITRO METHOD FOR PREDICTING WHETHER A COMPOUND IS GENOTOXIC IN VIVO” (priority 2009, published 2012):

Tested on: primary mouse hepatocytes
Test: Gene expression (Affymetrix Mouse Genome 430 2.0) in primary mouse hepatocytes, true vs false GTX, 24 h and 48 h
Settings: log2, corrected for vehicle control

Nc1ccc([N+](=O)[O-])cc1N [4-NP, 4-Nitro-o-phenylenediamine]
Gene expression data AF000969 (Cadps2) (24 h average): −0.6839
Gene expression data AF022072 (Grb10) (24 h average): 0.8486
Gene expression data AF065917 (Lif) (24 h average): −0.4573
Gene expression data AF204959 (Cyp3a25 /// LOC622249) (24 h average): −2.025
Gene expression data AF297615 (Ggta1) (24 h average): −0.2797
Gene expression data AI594683 (Dmn) (24 h average): −0.3517
Gene expression data AI596632 (Ptprg /// LOC632664) (24 h average): −0.4962
Gene expression data AI987929 (Ndrg1) (24 h average): 2.65
Gene expression data AK004419 (Fbxl17) (24 h average): −0.0775
Gene expression data AK005731 (1700007K13Rik) (24 h average): −0.5111
Gene expression data AK007766 (1810044A24Rik) (24 h average): −0.1697
Gene expression data AK007854 (1810053B23Rik) (24 h average): −1.736
Gene expression data AK009736 (Gpr137b /// LOC664862 /// LOC673335) (24 h average): 1.582
Gene expression data AK010447 (Smyd3) (24 h average): 0.4967
Gene expression data AK014608 (4632434l11Rik) (24 h average): 0.2958
Gene expression data AK019979 (2610528E23Rik) (24 h average): 0.9384
Gene expression data AV095209 (Mthfd1l) (24 h average): 0.9072
Gene expression data AV141095 (1110033M05Rik) (24 h average): 0.1789
Gene expression data AV173571 (1700106N22Rik) (24 h average): −0.003133
Gene expression data AV219418 (Ldhb) (24 h average): −1.032
Gene expression data AV223474 (Zdhhc14) (24 h average): −0.08437
Gene expression data AV298304 (Homez) (24 h average): −0.5839
Gene expression data AV327248 (Zfp365 /// LOC674611) (24 h average): −0.08917
Gene expression data AV377066 (9130221J18Rik) (24 h average): −1.695
Gene expression data AW240761 (Tbc1d5) (24 h average): 0.02697
Gene expression data AW543460 (Pard3) (24 h average): 0.9127
Gene expression data AW543723 (24 h average): 0.6706
Gene expression data AW986246 (Maoa) (24 h average): 1.7055
Gene expression data BB027848 (4732466D17Rik) (24 h average): −1.7858
Gene expression data BB043558 (9230114K14Rik) (24 h average): −0.4159
Gene expression data BB275142 (AW456874) (24 h average): −0.4184
Gene expression data BB308836 (Ppm1l) (24 h average): 0.03763
Gene expression data BB318221 (Zdhhc14) (24 h average): 0.0942
Gene expression data BB463610 (4632434l11Rik) (24 h average): 0.2106
Gene expression data BB526605 (Mipol1) (24 h average): 1.641
Gene expression data BB770528 (Rai2) (24 h average): −1.122
Gene expression data BB821363 (Scfd2) (24 h average): −0.219
Gene expression data BC004827 (Psat1) (24 h average): 0.5395
Gene expression data BC008626 (Icam1) (24 h average): −2.248
Gene expression data BC010462 (BC010462) (24 h average): −0.8654
Gene expression data BC012247 (Dcxr) (24 h average): −1.5
Gene expression data BC012260 (Psmf1) (24 h average): 0.1189
Gene expression data BC015270 (Hist2h3c2) (24 h average): −0.7846
Gene expression data BC016073 (Cdkal1) (24 h average): 0.3627
Gene expression data BC016265 (Ube2e2) (24 h average): 0.03433
Gene expression data BC019882 (Acaa1b) (24 h average): −1.259
Gene expression data BC025501 (Aaas) (24 h average): −0.2167
Gene expression data BC025837 (Sbk1) (24 h average): −0.8181
Gene expression data BC025915 (Cova1) (24 h average): 0.3343
Gene expression data BC026422 (Tgm1) (24 h average): −0.8176
Gene expression data BF719766 (Thyn1) (24 h average): −0.2859
Gene expression data BG065754 (Ccng1) (24 h average): −0.2503
Gene expression data BG066903 (Kif16b) (24 h average): 1.005
Gene expression data BG069873 (Gnb1l) (24 h average): −0.1326
Gene expression data BG070887 (Gtdc1) (24 h average): 0.3432
Gene expression data BG076151 (Ppm1d) (24 h average): −0.2933
Gene expression data BG261907 (Large) (24 h average): 0.3643
Gene expression data BI651416 (Cdc42bpg) (24 h average): −0.0339
Gene expression data BI660702 (Ell3) (24 h average): −0.609
Gene expression data BM198879 (Ercc5) (24 h average): −0.3288
Gene expression data BM230508 (A030007D23Rik) (24 h average): −0.6065
Gene expression data NM_007987 (Fas) (24 h average): −1.231
Gene expression data NM_008522 (Ltf) (24 h average): −0.3018
Gene expression data NM_008576 (Abcc1) (24 h average): 1.696
Gene expression data NM_011176 (St14) (24 h average): −0.5717
Gene expression data NM_011316 (Saa4) (24 h average): −0.5909
Gene expression data NM_012006 (Acot1) (24 h average): −1.4501
Gene expression data NM_013866 (Zfp385) (24 h average): −0.2808
Gene expression data NM_018770 (Igsf4a) (24 h average): 0.3868
Gene expression data NM_021451 (Pmaip1) (24 h average): −1.505
Gene expression data NM_025770 (Atg10) (24 h average): 1.051
Gene expression data NM_028803 (Gbe1) (24 h average): 0.3633
Gene expression data NM_030697 (Ankrd47) (24 h average): 0.1816
Gene expression data NM_053168 (Trim11) (24 h average): −0.1598
Gene expression data NM_134188 (Acot2) (24 h average): −0.7637
Gene expression data Y15910 (Diap2) (24 h average): −0.5398
Gene expression AA561726 average (48 h): −0.08
Gene expression AF000969 average (48 h): −0.8202
Gene expression AF022072 average (48 h): 0.6062
Gene expression AF033112 average (48 h): 0.152
Gene expression AF055573 average (48 h): −0.1973
Gene expression AF069954 average (48 h): −0.4429
Gene expression AF297615 average (48 h): −1.352
Gene expression AF335325 average (48 h): 0.5071
Gene expression AI594683 average (48 h): −0.4763
Gene expression AI747296 average (48 h): −0.3288
Gene expression AK005731 average (48 h): −0.9581
Gene expression AK007854 average (48 h): −0.1411
Gene expression AK010447 average (48 h): 0.5956
Gene expression AK010738 average (48 h): −0.1569
Gene expression AK014608 average (48 h): −0.3072
Gene expression AK017734 average (48 h): −1.2326
Gene expression AK018383 average (48 h): −0.5006
Gene expression AK019979 average (48 h): 0.04087
Gene expression AV095209 average (48 h): 0.6413
Gene expression AV141095 average (48 h): −0.1051
Gene expression AV173869 average (48 h): 0.1411
Gene expression AV216768 average (48 h): −0.004067
Gene expression AV219418 average (48 h): 0.6295
Gene expression AV221299 average (48 h): 0.7477
Gene expression AV246296 average (48 h): −1.046
Gene expression AV251625 average (48 h): −0.1615
Gene expression AV254764 average (48 h): −0.4499
Gene expression AV327248 average (48 h): −0.01493
Gene expression BB009155 average (48 h): −0.6079
Gene expression BB027848 average (48 h): −1.954
Gene expression BB043558 average (48 h): −0.2736
Gene expression BB046347 average (48 h): −0.8045
Gene expression BB140436 average (48 h): 2.071
Gene expression BB204486 average (48 h): −0.0837
Gene expression BB223872 average (48 h): −0.6536
Gene expression BB246912 average (48 h): 0.3026
Gene expression BB275142 average (48 h): −0.1963
Gene expression BB458460 average (48 h): 0.1645
Gene expression BB463610 average (48 h): 0.03727
Gene expression BB730977 average (48 h): 0.992
Gene expression BB743970 average (48 h): −0.1636
Gene expression BB770528 average (48 h): −0.9985
Gene expression BB781615 average (48 h): −0.7501
Gene expression BC003284 average (48 h): −0.5876
Gene expression BC004827 average (48 h): −0.2247
Gene expression BC005552 average (48 h): 0.4521
Gene expression BC006713 average (48 h): −0.7469
Gene expression BC010318 average (48 h): 0.1861
Gene expression BC012247 average (48 h): −0.6355
Gene expression BC012955 average (48 h): 0.1051
Gene expression BC013893 average (48 h): −1.496
Gene expression BC017615 average (48 h): −1.535
Gene expression BC019379 average (48 h): −0.5665
Gene expression BC019882 average (48 h): −2.4942
Gene expression BC021352 average (48 h): −1.28
Gene expression BC022148 average (48 h): −1.1322
Gene expression BC025169 average (48 h): 0.3712
Gene expression BC026131 average (48 h): 0.2124
Gene expression BC027026 average (48 h): 0.05273
Gene expression BC027121 average (48 h): −0.2406
Gene expression BC027185 average (48 h): −1.382
Gene expression BE956581 average (48 h): 0.0346
Gene expression BF719766 average (48 h): −0.5024
Gene expression BG065754 average (48 h): −0.3381
Gene expression BG066491 average (48 h): −0.8219
Gene expression BG076151 average (48 h): −0.6573
Gene expression BG076333 average (48 h): 0.8731
Gene expression BG797099 average (48 h): −0.06697
Gene expression BG967046 average (48 h): −0.6324
Gene expression BI651416 average (48 h): −0.02873
Gene expression BI966443 average (48 h): 0.2259
Gene expression BM198879 average (48 h): −0.4213
Gene expression BM200015 average (48 h): −0.4429
Gene expression BM230508 average (48 h): −0.9731
Gene expression BM936480 average (48 h): −0.412
Gene expression BQ174991 average (48 h): 0.4017
Gene expression L21027 average (48 h): −0.03073
Gene expression NM_007556 average (48 h): 0.4274
Gene expression NM_007980 average (48 h): −1.581
Gene expression NM_007987 average (48 h): −0.8469
Gene expression NM_008522 average (48 h): −0.2393
Gene expression NM_008935 average (48 h): −1.002
Gene expression NM_009897 average (48 h): −0.01903
Gene expression NM_011075 average (48 h): −1.008
Gene expression NM_011176 average (48 h): −1.635
Gene expression NM_011316 average (48 h): −0.9295
Gene expression NM_012006 average (48 h): −0.006733
Gene expression NM_013642 average (48 h): 1.007
Gene expression NM_013738 average (48 h): −1.171
Gene expression NM_013929 average (48 h): 0.1753
Gene expression NM_018881 average (48 h): −0.2965
Gene expression NM_019738 average (48 h): −1.132
Gene expression NM_030697 average (48 h): −0.3339
Gene expression NM_053122 average (48 h): −0.09647
Gene expression NM_134147 average (48 h): 0.01433
Gene expression NM_134188 average (48 h): −0.4402
Gene expression X62701 average (48 h): 0.7376
